Source: US20230263822A1, “MODULATION OF FACTOR 11 EXPRESSION” (Ionis Pharmaceuticals, Inc., priority 2008, published 2023)

Assay: Hematology assays in cynomolgus monkeys (Example 45)
Format: in vivo
Conditions: for MCH / MCHC / MCV / RBC count / WBC count / hematocrit / hemoglobin: escalating dose regimen
Summary of the method: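 Cynomolgus monkeys (2 male, 3 female per group) dosed subcutaneously with antisense oligonucleotide or PBS, escalating 5, 10, then 25 mg/kg two to three times weekly over 12 weeks; one chronic group held at 10 mg/kg from week 4. Blood sampled weekly; necropsy on day 85.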

ISIS 416838: MOE gapmer, nucleobases 1018 to 1042 of SEQ ID NO: 1 (Table 6) (antisense GCAACCGGGATGATGAGTGC; MOE gapmer, wing and gap sizes not given here)
MCH (Day 64): 23 pg | MCH (Day 71): 23 pg | MCH (Day 78): 23 pg | MCH (Day 85): 23 pg | basophils (day 8): 0.2% | eosinophils (day 8): 0.4% | lymphocytes (day 8): 54% | monocytes (day 8): 2.5% | neutrophils (day 8): 42% | platelet count (day 8): 387000 µL⁻¹ | reticulocytes (day 8): 1.2% | MCH (day 8): 23 pg | MCHC (day 8): 30 g/dL | MCV (day 8): 77 fL | RBC count (day 8): 5.7e+06 µL⁻¹ | WBC count (day 8): 10000 µL⁻¹ | hematocrit (day 8): 43% | hemoglobin (day 8): 12.9 g/dL | basophils (day 15): 0.3% | eosinophils (day 15): 0.3% | lymphocytes (day 15): 53% | monocytes (day 15): 2.4% | neutrophils (day 15): 43% | platelet count (day 15): 387000 µL⁻¹ | reticulocytes (day 15): 1.2% | MCH (day 15): 23 pg | MCHC (day 15): 31 g/dL | MCV (day 15): 75 fL | RBC count (day 15): 5.6e+06 µL⁻¹ | WBC count (day 15): 10000 µL⁻¹ | hematocrit (day 15): 42% | hemoglobin (day 15): 12.9 g/dL | basophils (day 22): 0.2% | eosinophils (day 22): 0.5% | lymphocytes (day 22): 59% | monocytes (day 22): 2.9% | neutrophils (day 22): 37% | platelet count (day 22): 319000 µL⁻¹ | reticulocytes (day 22): 1.2% | MCH (day 22): 23 pg | MCHC (day 22): 29 g/dL | MCV (day 22): 80 fL | RBC count (day 22): 5.4e+06 µL⁻¹ | WBC count (day 22): 11000 µL⁻¹ | hematocrit (day 22): 43% | hemoglobin (day 22): 12.5 g/dL | basophils (day 29): 0.2% | eosinophils (day 29): 0.3% | lymphocytes (day 29): 59% | monocytes (day 29): 3.2% | neutrophils (day 29): 36% | platelet count (day 29): 337000 µL⁻¹ | reticulocytes (day 29): 1.6% | MCH (day 29): 23 pg | MCHC (day 29): 29 g/dL | MCV (day 29): 81 fL | RBC count (day 29): 5.3e+06 µL⁻¹ | WBC count (day 29): 11000 µL⁻¹ | hematocrit (day 29): 43% | hemoglobin (day 29): 12.4 g/dL | basophils (day 36): 0.4% | eosinophils (day 36): 0.5% | lymphocytes (day 36): 57% | monocytes (day 36): 2.5% | neutrophils (day 36): 39% | platelet count (day 36): 370000 µL⁻¹ | reticulocytes (day 36): 1.6% | MCH (day 36): 23 pg | MCHC (day 36): 30 g/dL | MCV (day 36): 78 fL | RBC count (day 36): 5.5e+06 µL⁻¹ | WBC count (day 36): 10000 µL⁻¹ | hematocrit (day 36): 43% | hemoglobin (day 36): 12.8 g/dL | basophils (day 43): 0.4% | eosinophils (day 43): 0.6% | lymphocytes (day 43): 65% | monocytes (day 43): 3.3% | neutrophils (day 43): 30% | platelet count (day 43): 365000 µL⁻¹ | reticulocytes (day 43): 1.2% | MCH (day 43): 23 pg | MCHC (day 43): 30 g/dL | MCV (day 43): 78 fL | RBC count (day 43): 5.6e+06 µL⁻¹ | WBC count (day 43): 10000 µL⁻¹ | hematocrit (day 43): 43% | hemoglobin (day 43): 12.7 g/dL | basophils (day 50): 0.3% | eosinophils (day 50): 0.8% | lymphocytes (day 50): 64% | monocytes (day 50): 3.2% | neutrophils (day 50): 31% | platelet count (day 50): 372000 µL⁻¹ | reticulocytes (day 50): 1.6% | MCH (day 50): 23 pg | MCHC (day 50): 28 g/dL | MCV (day 50): 80 fL | RBC count (day 50): 5.5e+06 µL⁻¹ | WBC count (day 50): 11000 µL⁻¹ | hematocrit (day 50): 44% | hemoglobin (day 50): 12.3 g/dL | basophils (day 57): 0.3% | eosinophils (day 57): 0.6% | lymphocytes (day 57): 63% | monocytes (day 57): 3.2% | neutrophils (day 57): 32% | platelet count (day 57): 371000 µL⁻¹ | reticulocytes (day 57): 1.5% | MCH (day 57): 23 pg | MCHC (day 57): 29 g/dL | MCV (day 57): 79 fL | RBC count (day 57): 5.5e+06 µL⁻¹ | WBC count (day 57): 12000 µL⁻¹ | hematocrit (day 57): 43% | hemoglobin (day 57): 12.6 g/dL | basophils (day 64): 0.4% | eosinophils (day 64): 0.7% | lymphocytes (day 64): 64% | monocytes (day 64): 3.5% | neutrophils (day 64): 30% | platelet count (day 64): 358000 µL⁻¹ | reticulocytes (day 64): 1.3% | MCHC (day 64): 29 g/dL | MCV (day 64): 79 fL | RBC count (day 64): 5.6e+06 µL⁻¹ | WBC count (day 64): 13000 µL⁻¹ | hematocrit (day 64): 44% | hemoglobin (day 64): 12.6 g/dL | basophils (day 71): 0.5% | eosinophils (day 71): 0.8% | lymphocytes (day 71): 65% | monocytes (day 71): 4.3% | neutrophils (day 71): 28% | platelet count (day 71): 365000 µL⁻¹ | reticulocytes (day 71): 1.3% | MCHC (day 71): 29 g/dL | MCV (day 71): 80 fL | RBC count (day 71): 5.5e+06 µL⁻¹ | WBC count (day 71): 15000 µL⁻¹ | hematocrit (day 71): 44% | hemoglobin (day 71): 12.7 g/dL | basophils (day 78): 0.4% | eosinophils (day 78): 0.9% | lymphocytes (day 78): 60% | monocytes (day 78): 3.6% | neutrophils (day 78): 35% | platelet count (day 78): 348000 µL⁻¹ | reticulocytes (day 78): 1.4% | MCHC (day 78): 30 g/dL | MCV (day 78): 76 fL | RBC count (day 78): 5.4e+06 µL⁻¹ | WBC count (day 78): 11000 µL⁻¹ | hematocrit (day 78): 41% | hemoglobin (day 78): 12.5 g/dL | basophils (day 85): 0.3% | eosinophils (day 85): 1.5% | lymphocytes (day 85): 72% | monocytes (day 85): 3.7% | neutrophils (day 85): 22% | platelet count (day 85): 344000 µL⁻¹ | reticulocytes (day 85): 1.5% | MCHC (day 85): 30 g/dL | MCV (day 85): 77 fL | RBC count (day 85): 5.5e+06 µL⁻¹ | WBC count (day 85): 12000 µL⁻¹ | hematocrit (day 85): 42% | hemoglobin (day 85): 12.4 g/dL | basophils (day −5): 0.3% | eosinophils (day −5): 0.6% | lymphocytes (day −5): 59% | monocytes (day −5): 3.6% | neutrophils (day −5): 35% | platelet count (day −5): 425000 µL⁻¹ | reticulocytes (day −5): 0.9% | MCH (day −5): 23 pg | MCHC (day −5): 31 g/dL | MCV (day −5): 76 fL | RBC count (day −5): 5.6e+06 µL⁻¹ | WBC count (day −5): 12000 µL⁻¹ | hematocrit (day −5): 42% | hemoglobin (day −5): 13.1 g/dL | basophils (day −14): 0.2% | eosinophils (day −14): 0.6% | lymphocytes (day −14): 59% | monocytes (day −14): 3.1% | neutrophils (day −14): 36% | platelet count (day −14): 377000 µL⁻¹ | reticulocytes (day −14): 1.0% | MCH (day −14): 23 pg | MCHC (day −14): 30 g/dL | MCV (day −14): 77 fL | RBC count (day −14): 5.6e+06 µL⁻¹ | WBC count (day −14): 12000 µL⁻¹ | hematocrit (day −14): 42% | hemoglobin (day −14): 12.9 g/dL
